According to patent US20110105389A1 (priority 2009, published 2011):

Target: T1, human ghrelin receptor (GRLN, growth hormone secretagogue receptor, hGHS-R1a) (Homo sapiens, UniProt Q92847)
T1 construct: purchased PerkinElmer BioSignal #RBHGHSM, lot#1887; host or cells: HEK-293 cells, stably transfected (membranes)
Assay: Competitive radioligand binding assay (ghrelin receptor), Method B1
Details: Ghrelin receptor binding activity, Method B1
Protocol: Multiscreen Harvest plates-GF/C (Millipore, #MAHFC1H60) • 4. […] Bottom seal (Millipore, #MATAH0P00) • 7. […] Binding Buffer: 25 mM Hepes (pH 7.4), 1 mM CaCl2, 5 mM MgCl2. 2.5 mM EDTA, 0.4% BSA
Competition experiments were performed in a 300 μl filtration assay format. • 1. 220 μL of membranes diluted in binding buffer • 2. 40 μL of compound diluted in binding buffer • 3.
Compounds were provided frozen on dry ice at a stock concentration of 10 mM diluted in 100% DMSO and stored at −80° C. until the day of testing. On the test day, compounds were allowed to thaw at rt overnight and then diluted in assay buffer according to the desired test concentrations. Under these conditions, the maximal final DMSO concentration in the assay was 0.1%.
Plates were sealed with TopSeal-A, vortexed gently and incubated at rt for 30 min. The reaction was arrested by filtering samples through Multiscreen Harvest plates (pre-soaked in 0.5% polyethyleneimine) using a Tomtec Harvester, washed 9 times with 500 μL of cold 50 mM Tris-HCl (pH 7.4, 4° C.), and then plates were air-dried in a fumehood for 30 min. A bottom seal was applied to the plates prior to the addition of 25 μL of MicroScint-0 to each well. Plates were than sealed with TopSeal-A and counted for 30 sec per well on a TopCount Microplate Scintillation and Luminescence Counter (PerkinElmer) using a count delay of 60 sec. Results were expressed as counts per minute (cpm).
Data were analyzed by GraphPad Prism (GraphPad Software, San Diego, Calif.) using a variable slope non-linear regression analysis. […] Dmax values were calculated using the following formula: […]

T1 sequence (Q92847 whole entry): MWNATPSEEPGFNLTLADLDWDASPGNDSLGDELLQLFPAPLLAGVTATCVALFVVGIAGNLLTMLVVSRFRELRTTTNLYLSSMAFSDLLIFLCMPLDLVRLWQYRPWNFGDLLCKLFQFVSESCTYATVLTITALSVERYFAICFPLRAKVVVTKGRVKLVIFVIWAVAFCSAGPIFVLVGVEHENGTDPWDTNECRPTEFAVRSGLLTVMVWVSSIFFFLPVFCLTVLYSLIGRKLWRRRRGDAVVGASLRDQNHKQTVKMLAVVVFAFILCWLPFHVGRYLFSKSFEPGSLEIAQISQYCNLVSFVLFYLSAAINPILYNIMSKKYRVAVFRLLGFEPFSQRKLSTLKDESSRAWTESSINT

SMILES	IC50 [nM]
CC[C@@H]1CCc2c(NS(C)(=O)=O)cccc2OCCN[C@@H](C(C)C)C(=O)N(C)[C@@H](C(C)O)C(=O)N[C@H](Cc2ccccc2)C(=O)N1 (some centres unmarked) [Compound 1866]	> 500
CC(O)[C@H]1C(=O)N[C@H](Cc2ccccc2)C(=O)N[C@H](C)CCc2ccc(F)cc2O[C@H](C)CN[C@@H](C2(C)CC2)C(=O)N1C (some centres unmarked) [Compound 1869]	10 to 100
CC(O)[C@H]1C(=O)N[C@H](Cc2ccc(F)cc2)C(=O)N[C@H](C)CCc2ccc(F)cc2O[C@H](C)CN[C@@H](C2(C)CC2)C(=O)N1C (some centres unmarked) [Compound 1870]	10 to 100
CC(O)[C@H]1C(=O)N[C@H](Cc2ccc(Cl)cc2)C(=O)N[C@H](C)CCc2ccc(F)cc2O[C@H](C)CN[C@@H](C2(C)CC2)C(=O)N1C (some centres unmarked) [Compound 1871]	10 to 100
CC(O)[C@H]1C(=O)N[C@H](Cc2ccc3ccccc3c2)C(=O)NCCCc2cccnc2OCCN[C@@H](C2(C)CC2)C(=O)N1C (some centres unmarked) [Compound 1880]	1 to 10
CC(C)[C@@H]1NCCOc2cc(F)ccc2CCC(CC(F)(F)F)NC(=O)[C@@H](Cc2c[nH]c3ccccc23)NC(=O)[C@H](C(C)O)N(C)C1=O (some centres unmarked) [Compound 1885]	100 to 500
CC[C@@H]1CCc2c(cccc2C(F)(F)F)OCCN[C@@H](C(C)C)C(=O)N(C)[C@@H](C(C)O)C(=O)N[C@H](Cc2ccccc2)C(=O)N1 (some centres unmarked) [Compound 1888]	> 500
CC[C@@H]1CCc2c(C#N)cccc2OCCN[C@@H](C(C)C)C(=O)N(C)[C@@H](C(C)O)C(=O)N[C@H](Cc2ccccc2)C(=O)N1 (some centres unmarked) [Compound 1889]	100 to 500
CC[C@@H]1CCc2c(cccc2C(F)(F)F)OCCN[C@@H](C(C)C)C(=O)N(C)[C@@H](C(C)O)C(=O)N[C@H](Cc2c[nH]c3ccccc23)C(=O)N1 (some centres unmarked) [Compound 1891]	100 to 500
CC[C@@H]1CCc2c(cccc2C(F)(F)F)OCCN[C@@H](C(C)C)C(=O)N(C)[C@@H](C(C)O)C(=O)N[C@H](Cc2ccc(F)cc2)C(=O)N1 (some centres unmarked) [Compound 1892]	> 500
CC[C@@H]1CCc2c(C#N)cccc2OCCN[C@@H](C2(C)CC2)C(=O)N(C)[C@@H](C(C)O)C(=O)N[C@H](Cc2ccccc2)C(=O)N1 (some centres unmarked) [Compound 1895]	100 to 500
CC[C@@H]1CCc2c(C#N)cccc2OCCN[C@@H](C(C)C)C(=O)N(C)[C@@H](C(C)O)C(=O)N[C@H](Cc2c[nH]c3ccccc23)C(=O)N1 (some centres unmarked) [Compound 1896]	100 to 500
CC[C@@H]1CCc2c(C#N)cccc2OCCN[C@@H](C(C)C)C(=O)N(C)[C@@H](C(C)O)C(=O)N[C@H](Cc2ccc(F)cc2)C(=O)N1 (some centres unmarked) [Compound 1897]	100 to 500
CC(C)[C@@H]1NCCOc2ncccc2CC[C@@H](C)NC(=O)[C@@H](Cc2ccccc2)NC(=O)[C@H](C(C)O)N(C)C1=O (some centres unmarked) [Compound 1906]	10 to 100
CC(O)[C@H]1C(=O)N[C@H](Cc2ccccc2)C(=O)N[C@H](C)CCc2cccnc2OCCN[C@@H](C2(C)CC2)C(=O)N1C (some centres unmarked) [Compound 1907]	10 to 100
CC[C@@H]1CCc2c(cccc2C(F)(F)F)OCCN[C@@H](C2(C)CC2)C(=O)N(C)[C@@H](C(C)O)C(=O)N[C@H](Cc2ccccc2)C(=O)N1 (some centres unmarked) [Compound 1912]	> 500
CC[C@@H]1CCc2ccc(F)cc2OCCN[C@@H](C2(C)CC2)C(=O)N(C)[C@@H](C(C)O)C(=O)N[C@H](Cc2ccc(F)cc2)C(=O)N1 (some centres unmarked) [Compound 1913]	10 to 100
CC(O)C1C(=O)NC(Cc2ccccc2)C(=O)NC(CC(F)(F)F)CCc2ccc(F)cc2OCCNC(C2(C)CC2)C(=O)N1C (centres unmarked) [Compound 1921]	100 to 500

Target: T2, GHS-R1a receptor (HEK293 cells expressing GHS-R1a receptor) (Homo sapiens, UniProt Q92847)
T2 construct: host or cells: HEK293
Assay: Fluorescence functional assay (ghrelin receptor), Method B2, agonist and antagonist mode
Format: cell-based
Details: functional activity as an antagonist at the ghrelin receptor, Methods B2 and B3
Protocol: • 1. ImageTrak Epi-Fluorescence system (Perkin-Elmer) • 2. MultiDrop TiterTek • 3. CO2 incubators: 5% CO2, humidified, 37° C.
• 1. Hanks' BSS without phenol red (Life Technologies) • 2. Hepes buffer • 3. Probenecid (Sigma) • 4. […] Falcon cell culture 96-well black/clear bottom plates • 6. 0.05% trypsin-EDTA • 7. Cells: HEK293 cells expressing GHS-R1a receptor (Perkin-Elmer BioSignal) were grown in DMEM (Dulbecco's Modified Eagles Medium) with 10% FBS, 1% sodium pyruvate, 1% NEAA and 400 μg/mL geneticin • 8. […] [D-Lys^3]-GHRP-6 (reference antagonist, Phoenix #031-22) • 10. Assay buffer: HBSS-20 mM Hepes containing 2.5 mM probenecid and 0.1% BSA (bovine serum albumin); pH 7.4
Stock solutions of compounds (10 mM in 100% DMSO) were provided frozen on dry ice and stored at −80° C. prior to use. […] Assay plates were then prepared by appropriate dilution in assay buffer.
Typical Final Test Concentrations (N=10) for Test Compounds (agonist):
Typical Final Test Concentrations (N=10) for Test Compounds (antagonist):
Cells were maintained in culture as indicated above. The cells were harvested at a confluency of 70-90% the day before the experiment. Growth medium was removed and the cells rinsed briefly with PBS without Ca^+2 and Mg^+2. 0.05% Trypsin was added and the plates incubated at 37° C. for 5 min to detach the cells. DMEM medium supplemented with 10% FBS was added to inactivate the trypsin and determine the cell concentration. The inoculum was adjusted to a final concentration of 200 cells/μL and dispensed at 200 μL per well into a 96-well block plate. The plates were, incubated at 37° C. overnight.
The plates were removed from the incubator and the media removed by inversion of the plates. Calcium-3 dye, 50 μL, was loaded and then incubated for 1 h at 37° C. The plate was again inverted and then 25 μL of assay buffer added. The plates were then transferred to the ImageTrak system for analysis. For agonist testing, after reading for ten (10) sec, 25 μL of 2× test compound or control was injected into the assay plate. Fluorescence was monitored for an additional 50 sec. A reading was taken every two (2) seconds for a total of 30 readings per assay point.
For antagonist testing, after reading for ten (10) sec, 12.5 μL of 3× test compound or control was injected into the assay plate and allowed to react for three (3) min.
Concentration response curves were analyzed using GraphPad Prism (GraphPad Software, San Diego, Calif.) by non-linear regression analysis (sigmoidal dose-response). EC50 values are calculated using GraphPad.
Emax values were calculated using the following formula: […]
Concentration response curves were analyzed using GraphPad Prism (GraphPad Software, San Diego, Calif.) by non-linear regression analysis (sigmoidal dose-response). IC50 values are calculated using GraphPad.
Imax values were calculated using the following formula: […]

T2 sequence (Q92847 whole entry): as above

SMILES	Antagonist Activity
CCC(C)[C@@H]1NCCOc2ccccc2/C=C/CNC(=O)[C@@H](Cc2cccc(O)c2)NC(=O)[C@H](C(C)O)N(C)C1=O (some centres unmarked) [Compound 1351]	C (C = 10-100 nM)
CC(C)[C@@H]1NCCOc2ccccc2CC[C@@H](C)NC(=O)[C@@H](Cc2cccc(O)c2)NC(=O)[C@H](C(C)O)N(C)C1=O (some centres unmarked) [Compound 1352]	C (C = 10-100 nM)
CC(C)[C@@H]1NCCOc2ccccc2CC[C@@H](C)NC(=O)[C@@H](Cc2ccccc2)NC(=O)[C@H](C(C)O)N(C)C1=O (some centres unmarked) [Compound 1361]	B (B = 1-10 nM)
CC(C)[C@@H]1NCCOc2cc(F)ccc2CCCNC(=O)[C@@H](Cc2ccccc2)NC(=O)[C@H](C(C)O)N(C)C1=O (some centres unmarked) [Compound 1363]	C (C = 10-100 nM)
CC(C)[C@@H]1NCCOc2cc(F)ccc2CCCNC(=O)[C@@H](Cc2cccc(F)c2)NC(=O)[C@H](C(C)O)N(C)C1=O (some centres unmarked) [Compound 1366]	B (B = 1-10 nM)
CC(O)[C@H]1C(=O)N[C@H](Cc2ccccc2)C(=O)N[C@H](C)CCc2ccccc2OCCN[C@@H](C(C)(C)C)C(=O)N1C (some centres unmarked) [Compound 1370]	C (C = 10-100 nM)
CC(C)[C@@H]1NCCOc2ccc(F)cc2CC[C@@H](C)NC(=O)[C@@H](Cc2ccccc2)NC(=O)[C@H](C(C)O)N(C)C1=O (some centres unmarked) [Compound 1380]	B (B = 1-10 nM)
CC(C)[C@@H]1NCCOc2cccc(F)c2CC[C@@H](C)NC(=O)[C@@H](Cc2ccccc2)NC(=O)[C@H](C(C)O)N(C)C1=O (some centres unmarked) [Compound 1381]	B (B = 1-10 nM)
CC(C)[C@@H]1NCCOc2ccccc2CC[C@@H](C)NC(=O)[C@@H](Cc2ccc(O)c(Cl)c2)NC(=O)[C@H](C(C)O)N(C)C1=O (some centres unmarked) [Compound 1383]	B (B = 1-10 nM)
CC(C)[C@@H]1NCCOc2ccccc2CC[C@@H](C)NC(=O)[C@@H](Cc2cccnc2)NC(=O)[C@H](C(C)O)N(C)C1=O (some centres unmarked) [Compound 1384]	C (C = 10-100 nM)
CCC[C@@H]1NCCOc2ccccc2CC[C@@H](C)NC(=O)[C@@H](Cc2ccccc2)NC(=O)[C@H](C(C)O)N(C)C1=O (some centres unmarked) [Compound 1394]	D (D = 100-500 nM)
CC1CCc2ccccc2OCCNC(C(C)C)C(=O)N(C)C(C(C)O)C(=O)NC(Cc2ccccc2O)C(=O)N1 (centres unmarked) [Compound 1401]	B (B = 1-10 nM)
CC(C)[C@@H]1NCCOc2ccccc2CC[C@@H](C(F)(F)F)NC(=O)[C@@H](Cc2ccccc2)NC(=O)[C@H](C(C)O)N(C)C1=O (some centres unmarked) [Compound 1402]	B (B = 1-10 nM)
CC(C)[C@@H]1NCCOc2ccccc2CC[C@@H](C)NC(=O)[C@@H]([C@H](C)c2ccccc2)NC(=O)[C@H](C(C)O)N(C)C1=O (some centres unmarked) [Compound 1404]	B (B = 1-10 nM)
CC(C)[C@@H]1NCCOc2ccccc2CC[C@@H](C)NC(=O)[C@@H](Cc2cc(F)c(F)c(F)c2)NC(=O)[C@H](C(C)O)N(C)C1=O (some centres unmarked) [Compound 1411]	B (B = 1-10 nM)
CC(C)[C@@H]1NCCOc2ccccc2CC[C@@H](C)NC(=O)[C@@H](Cc2csc3ccccc23)NC(=O)[C@H](C(C)O)N(C)C1=O (some centres unmarked) [Compound 1416]	A (A <1 nM)
CC(C)[C@@H]1NCCOc2ccc(F)cc2CC[C@@H](C)NC(=O)[C@@H](Cc2ccc(F)cc2)NC(=O)[C@H](C(C)O)N(C)C1=O (some centres unmarked) [Compound 1436]	B (B = 1-10 nM)
